{"source": "patent US20030134869A1", "about": "“Novel therapeutic use of nicergoline” (priority 1998, published 2003)", "key": {"[1]": {"tested_on": "motor neurons in motor neuron-enriched cultures", "experiment": "Neuronal death in motor neuron-enriched cultures in the absence of trophic factor", "type": "cell-based", "settings": "p<0.05", "experimental": "The effect of nicergoline has therefore been determined in a degeneration model which is induced by depriving cultured motor neurons of neurotrophic factor.\n(§1) The motor neuron-enriched cultures are prepared using the centrifugation method which was described by R. L. SCHNAAR and A. E. SCHAFFNER, J. Neurosci., 1, 204-217 (1981) and modified by W. CAMU and C. E. HENDERSON, J. Neurosci. Methods, 44, 59-70 (1992). The motor neurons are spread, at a density of 2500 cells per plate, on 35 mm culture plates which have previously been coated with laminin/ornithine in accordance with the method of A. G. ESTEVEZ et al., J. Neurosci., 18 (3), 923-931 (1998). The cultures are then maintained in L15 medium (GIBCO BRL) containing sodium bicarbonate (22 mM), conalbumin (0.1 mg/ml), putrescine (0.1 mM), insulin (5 μg/ml), sodium selenite ([…]), glucose (20 mM), progesterone (21 nM), penicillin (100 IU/ml) and streptomycin (100 μg/ml).\nMore than 70% of the cells are immunoreactive for the neurotrophin p75 receptor and the Islet ½ markers for spinal motor neurons. […]\nThe number of motor neurons is estimated by counting the labeled cells in an area of 0.4-1 cm^2 under a microscope which enlarges 200 times. In all cases, the values are expressed as a percentage of the number of motor neurons which are present in cultures maintained using trophic factors. […]"}, "[2]": {"tested_on": "motor neurons in astrocyte/motor neuron co-cultures", "experiment": "Survival of motor neurons in astrocyte/motor neuron co-cultures", "type": "cell-based, rats", "settings": "for % OF LABELED MOTOR NEURONS: vehicle alone = 100 ± 9.4", "experimental": "as §1\nThe astrocytes are obtained from young, one-day-old rats using the slightly modified method of R. P. SANETO and J. DE VELLIS as described in Neurochemistry a practical approach (A. J. TURNER and H. S. St JOHN) IRL Press, Oxford-Washington D.C., pp. 27-63. The spinal cords are dissected out under sterile conditions and freed of meninges and dorsal ganglia. Five to ten spinal cords are transferred into PBS (phosphate buffer saline) and cut before being incubated at 37° C. for 25 minutes in PBS to which 0.25% trypsin has been added. The enzymatic treatment is stopped by adding 10 ml of Dulbecco's modified Eagle medium (DMEM), to which 10% fetal calf serum (FCS) has been added, and the cells are collected by centrifugation. Another step of mechanical dissociation is performed using the end of a 1 ml pipette. The cells are spread, at a density of 1.5-2×10^6 cells per 25 cm^2 of culture medium, in DMEM containing 10% FCS. After 2 days in vitro, the cultures are fed every day. When a visible monolayer of cells has been completed, the cultures are stirred at 250 rpm for 48 hours and, on the following day, the monolayers are treated with cytosine arabinoside (10^−5 M) for 48 hours. The astrocyte monolayers are then amplified to a density of five on 35 mm culture plates for initially 25 cm^2 culture flasks.\nThe spinal astrocyte cultures consist, to an extent of more than 98%, of flat, polygonal cells which are immunoreactive for the glial fibrillar acid protein (GFAP). The monolayers are exposed to the product to be tested and then incubated with the motor neuron medium in order to obtain a conditioned culture medium. This medium is transferred and tested at different dilutions in order to determine its effects on neuronal survival.\nThe cells are fixed in 4% paraformaldehyde and 0.1% glutaraldehyde in PBS (pH 7.4 and at 4° C. for 15 minutes) and in a cold methanolic solution. […]"}}, "data": [{"smiles": "CO[C@]12C[C@@H](COC(=O)c3cncc(Br)c3)CN(C)[C@@H]1Cc1cn(C)c3cccc2c13", "note": "[Nicergoline, (8β)-10-methoxy-1,6-dimethylergoline-8-methanol-5-bromonicotinate]", "values": [{"measurement": "increase of the survival of the motor neurons", "setting": "[1]", "result": 13, "unit": "%"}, {"measurement": "% OF LABELED MOTOR NEURONS", "setting": "[2]; nicergoline 0.1 μM", "result": "115.7 ± 16", "unit": "%"}, {"measurement": "% OF LABELED MOTOR NEURONS", "setting": "[2]; nicergoline 1 μM, p < 0.05 vs vehicle", "result": "145.5 ± 24", "unit": "%"}, {"measurement": "increase of the survival of motor neurons as compared with cocultures treated with the vehicle alone", "setting": "[2]; nicergoline 10 μM", "result": 63.7, "unit": "%"}, {"measurement": "% OF LABELED MOTOR NEURONS", "setting": "[2]; nicergoline 10 μM, p < 0.01 vs vehicle", "result": "163.7 ± 22.5", "unit": "%"}]}]}
